Patent US11077090B2, “Compounds and compositions and uses thereof” (Sunovion Pharmaceuticals Inc., priority 2016, dated 2021)
Read-outs that look alike come from different tables or passages of the source.

Tested on: compound-treated mice
Assay: Neuropharmacological assay (SmartCube): behavioral activity signature and minimal effective dose
Type: in vivo
Settings: for minimal effective dose: Mus musculus, ip; for AD: ADHD (probability of activity signature) / AG: analgesic (probability of activity signature) / AX: anxiolytic (probability of activity signature) / CE: cognitive enhancer (probability of activity signature) / DP: anti-depressant (probability of activity signature) / MS: mood stabilizer (probability of activity signature) / PS: anti-psychotic (probability of activity signature) / SD: sedative hypnotic (probability of activity signature) / UN: uncharacterized CNS activity (probability of activity signature): i.p. 15 min before test, most efficacious dose(s)
Description: Neurosci. 2011 Sep. 9; 5:103 (doi: 10.3389/fnins.2011.00103) (“Roberds”). As reported in Roberds, because psychiatric diseases generally result from disorders of cell-cell communication or circuitry, intact systems are useful in detecting improvement in disease-relevant endpoints. These endpoints are typically behavioral in nature, often requiring human observation and interpretation. To facilitate testing of multiple compounds for behavioral effects relevant to psychiatric disease, PsychoGenics, Inc. (Tarrytown, N.Y., “PGI”) developed SmartCube™, an automated system in which behaviors of compound-treated mice are captured by digital video and analyzed with computer algorithms. (D. Brunner et al., Drug Discov. Today 2002, 7:S107-S112). PGI Analytical Systems uses data from SmartCube™ to compare the behavioral signature of a test compound to a database of behavioral signatures obtained using a large set of diverse reference compounds. (The composition of the database as well as validation of the method is further described in Roberds). In this way, the neuropharmacological effects of a test compound can be predicted by similarity to major classes of compounds, such as antipsychotics, anxiolytics and antidepressants.
The SmartCube™ system produces an activity signature indicating the probability that the activity of the test compound at the administered dose matches a given class of neuropharmacological agents. (See, e.g., Roberds, FIGS. 2 and 3). The test compound is simultaneously compared against multiple classes of agents; thus, a separate probability is generated for each behavioral effect measured (e.g., anxiolytic activity, analgesic activity, etc.). In the table below, these probabilities are reported for each behavioral effect measured as follows:
where LOQ is the limit of quantification.
Provided compounds were dissolved in a mixture of Pharmasolve™ (N-methyl-2-pyrrolidone), polyethylene glycol and propylene glycol, and were injected i.p. 15 min. before the behavioral test. For each compound, injections were administered at 3 different doses. For each behavioral effect measured, results for the most efficacious dose(s) are presented. In the table below, DP: anti-depressant; AX: anxiolytic; SD: sedative hypnotic; PS: anti-psychotic; MS: mood stabilizer; AD: ADHD; CE: cognitive enhancer; AG: analgesic; UN: uncharacterized CNS activity.
The potency of many of the compounds in the table was also determined in the SmartCube™ system. Test compounds were routinely examined at dose levels of 0.3, 1, 3, 10 and 30 mg per kg (mpk), although the dose range was increased or decreased if necessary to obtain a full dose response curve. A compound's minimal effective dose (MED) is a measure of the compounds potency. The MED was defined as the dose (in mpk) having 50% or more total activity in SmartCube.

[1] = MED = dose having 50% or more total activity, read-out: Potency: minimal effective dose (MED)

Cc1cccc2c1COC[C@H]2N (single isomer, unassigned) [Example 129]
minimal effective dose [1]: 3 to 10 mg/kg
AD: ADHD (probability of activity signature): + (LOQ ≤ + <5%)
AG: analgesic (probability of activity signature): ++ (5% ≤ ++ <25%)
AX: anxiolytic (probability of activity signature): +++ (25% ≤ +++ <50%)
CE: cognitive enhancer (probability of activity signature): ++ (5% ≤ ++ <25%)
DP: anti-depressant (probability of activity signature): ++ (5% ≤ ++ <25%)
MS: mood stabilizer (probability of activity signature): + (LOQ ≤ + <5%)
PS: anti-psychotic (probability of activity signature): ++ (5% ≤ ++ <25%)
SD: sedative hypnotic (probability of activity signature): ++ (5% ≤ ++ <25%)
UN: uncharacterized CNS activity (probability of activity signature): +++ (25% ≤ +++ <50%)

Cc1cccc2c1COC[C@@H]2N (single isomer, unassigned) [Example 130]
minimal effective dose [1]: 3 to 10 mg/kg
AD: ADHD (probability of activity signature): + (LOQ ≤ + <5%)
AG: analgesic (probability of activity signature): ++ (5% ≤ ++ <25%)
AX: anxiolytic (probability of activity signature): ++ (5% ≤ ++ <25%)
CE: cognitive enhancer (probability of activity signature): ++ (5% ≤ ++ <25%)
DP: anti-depressant (probability of activity signature): ++ (5% ≤ ++ <25%)
MS: mood stabilizer (probability of activity signature): + (LOQ ≤ + <5%)
PS: anti-psychotic (probability of activity signature): +++ (25% ≤ +++ <50%)
SD: sedative hypnotic (probability of activity signature): ++ (5% ≤ ++ <25%)
UN: uncharacterized CNS activity (probability of activity signature): ++++ (50% ≤ ++++)

Cc1cccc2c1[C@H](N)COC2 (single isomer, unassigned) [Example 133]
minimal effective dose [1]: < 3 mg/kg
AD: ADHD (probability of activity signature): + (LOQ ≤ + <5%)
AG: analgesic (probability of activity signature): ++ (5% ≤ ++ <25%)
AX: anxiolytic (probability of activity signature): ++ (5% ≤ ++ <25%)
CE: cognitive enhancer (probability of activity signature): ++ (5% ≤ ++ <25%)
DP: anti-depressant (probability of activity signature): ++ (5% ≤ ++ <25%)
MS: mood stabilizer (probability of activity signature): + (LOQ ≤ + <5%)
PS: anti-psychotic (probability of activity signature): +++ (25% ≤ +++ <50%)
SD: sedative hypnotic (probability of activity signature): + (LOQ ≤ + <5%)
UN: uncharacterized CNS activity (probability of activity signature): ++++ (50% ≤ ++++)

Cc1cccc2c1[C@@H](N)COC2 (single isomer, unassigned) [Example 134]
minimal effective dose [1]: 3 to 10 mg/kg
AD: ADHD (probability of activity signature): + (LOQ ≤ + <5%)
AG: analgesic (probability of activity signature): ++ (5% ≤ ++ <25%)
AX: anxiolytic (probability of activity signature): +++ (25% ≤ +++ <50%)
CE: cognitive enhancer (probability of activity signature): ++ (5% ≤ ++ <25%)
DP: anti-depressant (probability of activity signature): ++ (5% ≤ ++ <25%)
MS: mood stabilizer (probability of activity signature): + (LOQ ≤ + <5%)
PS: anti-psychotic (probability of activity signature): ++ (5% ≤ ++ <25%)
SD: sedative hypnotic (probability of activity signature): ++ (5% ≤ ++ <25%)
UN: uncharacterized CNS activity (probability of activity signature): +++ (25% ≤ +++ <50%)

CN[C@@H]1COCc2cccc(C)c21 (single isomer, unassigned) [Example 137]
minimal effective dose [1]: 3 to 10 mg/kg
AD: ADHD (probability of activity signature): + (LOQ ≤ + <5%)
AG: analgesic (probability of activity signature): ++ (5% ≤ ++ <25%)
AX: anxiolytic (probability of activity signature): ++ (5% ≤ ++ <25%)
CE: cognitive enhancer (probability of activity signature): ++ (5% ≤ ++ <25%)
DP: anti-depressant (probability of activity signature): + (LOQ ≤ + <5%)
MS: mood stabilizer (probability of activity signature): + (LOQ ≤ + <5%)
PS: anti-psychotic (probability of activity signature): ++ (5% ≤ ++ <25%)
SD: sedative hypnotic (probability of activity signature): + (LOQ ≤ + <5%)
UN: uncharacterized CNS activity (probability of activity signature): +++ (25% ≤ +++ <50%)

CN[C@H]1COCc2cccc(C)c21 (single isomer, unassigned) [Example 138]
minimal effective dose [1]: 3 to 10 mg/kg
AD: ADHD (probability of activity signature): + (LOQ ≤ + <5%)
AG: analgesic (probability of activity signature): ++ (5% ≤ ++ <25%)
AX: anxiolytic (probability of activity signature): ++ (5% ≤ ++ <25%)
CE: cognitive enhancer (probability of activity signature): ++ (5% ≤ ++ <25%)
DP: anti-depressant (probability of activity signature): ++ (5% ≤ ++ <25%)
MS: mood stabilizer (probability of activity signature): + (LOQ ≤ + <5%)
PS: anti-psychotic (probability of activity signature): ++ (5% ≤ ++ <25%)
SD: sedative hypnotic (probability of activity signature): ++ (5% ≤ ++ <25%)
UN: uncharacterized CNS activity (probability of activity signature): +++ (25% ≤ +++ <50%)

CN[C@H]1COCc2c(Cl)cccc21 (single isomer, unassigned) [Example 150]
minimal effective dose [1]: 3 to 10 mg/kg
AD: ADHD (probability of activity signature): + (LOQ ≤ + <5%)
AG: analgesic (probability of activity signature): ++ (5% ≤ ++ <25%)
AX: anxiolytic (probability of activity signature): ++ (5% ≤ ++ <25%)
CE: cognitive enhancer (probability of activity signature): + (LOQ ≤ + <5%)
DP: anti-depressant (probability of activity signature): + (LOQ ≤ + <5%)
MS: mood stabilizer (probability of activity signature): + (LOQ ≤ + <5%)
PS: anti-psychotic (probability of activity signature): ++ (5% ≤ ++ <25%)
SD: sedative hypnotic (probability of activity signature): + (LOQ ≤ + <5%)
UN: uncharacterized CNS activity (probability of activity signature): ++++ (50% ≤ ++++)

C[C@H]1OCc2ccccc2[C@@H]1N (single isomer, unassigned) [Example 151]
minimal effective dose [1]: 3 to 10 mg/kg
AD: ADHD (probability of activity signature): + (LOQ ≤ + <5%)
AG: analgesic (probability of activity signature): ++ (5% ≤ ++ <25%)
AX: anxiolytic (probability of activity signature): +++ (25% ≤ +++ <50%)
CE: cognitive enhancer (probability of activity signature): ++ (5% ≤ ++ <25%)
DP: anti-depressant (probability of activity signature): ++ (5% ≤ ++ <25%)
MS: mood stabilizer (probability of activity signature): + (LOQ ≤ + <5%)
PS: anti-psychotic (probability of activity signature): ++ (5% ≤ ++ <25%)
SD: sedative hypnotic (probability of activity signature): ++ (5% ≤ ++ <25%)
UN: uncharacterized CNS activity (probability of activity signature): ++ (5% ≤ ++ <25%)

C[C@@H]1OCc2ccccc2[C@@H]1N (single isomer, unassigned) [Example 153]
minimal effective dose [1]: 3 to 10 mg/kg
AD: ADHD (probability of activity signature): + (LOQ ≤ + <5%)
AG: analgesic (probability of activity signature): ++ (5% ≤ ++ <25%)
AX: anxiolytic (probability of activity signature): ++ (5% ≤ ++ <25%)
CE: cognitive enhancer (probability of activity signature): ++ (5% ≤ ++ <25%)
DP: anti-depressant (probability of activity signature): + (LOQ ≤ + <5%)
MS: mood stabilizer (probability of activity signature): + (LOQ ≤ + <5%)
PS: anti-psychotic (probability of activity signature): ++ (5% ≤ ++ <25%)
SD: sedative hypnotic (probability of activity signature): + (LOQ ≤ + <5%)
UN: uncharacterized CNS activity (probability of activity signature): +++ (25% ≤ +++ <50%)

C[C@H]1OCc2ccccc2[C@H]1N (single isomer, unassigned) [Example 154]
minimal effective dose [1]: 3 to 10 mg/kg
AD: ADHD (probability of activity signature): + (LOQ ≤ + <5%)
AG: analgesic (probability of activity signature): ++ (5% ≤ ++ <25%)
AX: anxiolytic (probability of activity signature): ++ (5% ≤ ++ <25%)
CE: cognitive enhancer (probability of activity signature): ++ (5% ≤ ++ <25%)
DP: anti-depressant (probability of activity signature): + (LOQ ≤ + <5%)
MS: mood stabilizer (probability of activity signature): + (LOQ ≤ + <5%)
PS: anti-psychotic (probability of activity signature): ++ (5% ≤ ++ <25%)
SD: sedative hypnotic (probability of activity signature): ++ (5% ≤ ++ <25%)
UN: uncharacterized CNS activity (probability of activity signature): ++++ (50% ≤ ++++)

Cc1ccc2c(c1)[C@@H](N)[C@@H](C)OC2 (single isomer, unassigned) [Example 158]
minimal effective dose (MED = dose having 50% or more total activity, read-out: Potency: minimal effective dose (MED), binned): 3 to 10 mg/kg
AD: ADHD (probability of activity signature): + (LOQ ≤ + <5%)
AG: analgesic (probability of activity signature): ++ (5% ≤ ++ <25%)
AX: anxiolytic (probability of activity signature): ++ (5% ≤ ++ <25%)
CE: cognitive enhancer (probability of activity signature): ++ (5% ≤ ++ <25%)
DP: anti-depressant (probability of activity signature): ++ (5% ≤ ++ <25%)
MS: mood stabilizer (probability of activity signature): + (LOQ ≤ + <5%)
PS: anti-psychotic (probability of activity signature): +++ (25% ≤ +++ <50%)
SD: sedative hypnotic (probability of activity signature): ++ (5% ≤ ++ <25%)
UN: uncharacterized CNS activity (probability of activity signature): ++ (5% ≤ ++ <25%)

Cl.NC1COCc2ccc3c(c21)C1CCC3C1 (single isomer, unassigned) [Example 161]
Potency: minimal effective dose (MED), binned (MED = dose having 50% or more total activity): B (>3 to 10 mpk)
AD: ADHD (probability of activity signature): + (LOQ ≤ + <5%)
AG: analgesic (probability of activity signature): ++ (5% ≤ ++ <25%)
AX: anxiolytic (probability of activity signature): +++ (25% ≤ +++ <50%)
CE: cognitive enhancer (probability of activity signature): ++ (5% ≤ ++ <25%)
DP: anti-depressant (probability of activity signature): ++ (5% ≤ ++ <25%)
MS: mood stabilizer (probability of activity signature): + (LOQ ≤ + <5%)
PS: anti-psychotic (probability of activity signature): ++ (5% ≤ ++ <25%)
SD: sedative hypnotic (probability of activity signature): + (LOQ ≤ + <5%)
UN: uncharacterized CNS activity (probability of activity signature): ++ (5% ≤ ++ <25%)
